Measurements published in patent US8952024B2, “Herbicidal pyrimidone derivatives” (E I du Pont de Nemours and Company, priority 2009, dated 2015).
Like-named read-outs stand apart in the source and are kept apart here.

Assays:
Assay in all cases: Test B pre-/postemergence plant response
Assay type in all cases: in vivo
corn (Zea mays) = details: for Corn plant response rating (crop injury, 0 = no effect, 100 = complete kill) at 31 g/ha: 31 g ai/ha, scale 0 to 100 (0 no effect, 100 complete control)
Procedure, shortened: (§1)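 Test compounds, formulated in a non-phytotoxic solvent mixture with surfactant, are applied to the soil surface (loam and sand blend) right after seeding, or sprayed over plants at the 1- to 4-leaf stage grown in peat moss/vermiculite medium. After 13 to 15 days under glasshouse conditions, each species is scored visually from 0 (no effect) to 100 (complete control) against controls.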

[1] = system: woolly cupgrass (Eriochloa villosa); details: for pest or weed control at 31 g/ha: 31 g ai/ha, scale 0 to 100 (0 no effect, 100 complete control); for pest or weed control at 62 g/ha: 62 g ai/ha
Procedure, shortened: as §1

[2] = system: Italian ryegrass (Lolium multiflorum)
Procedure, shortened: as §1

[3] = system: pigweed (Amaranthus retroflexus)
Procedure, shortened: as §1

[4] = system: galium (catchweed bedstraw, Galium aparine); details: Preemergence
Procedure, shortened: as §1

[5] = system: goosegrass (Eleusine indica); details: for pest or weed control at 62 g/ha: 62 g ai/ha
Procedure, shortened: as §1

[6] = system: lambsquarters (Chenopodium album); details: for pest or weed control at 62 g/ha: 62 g ai/ha
Procedure, shortened: as §1

[7] = system: nightshade (eastern black nightshade, Solanum ptycanthum); details: Preemergence
Procedure, shortened: as §1

[8] = system: Surinam grass (Brachiaria decumbens)
Procedure, shortened: as §1

[9] = system: large crabgrass (Digitaria sanguinalis); details: for pest or weed control at 31 g/ha: 31 g ai/ha, scale 0 to 100 (0 no effect, 100 complete control); for pest or weed control at 62 g/ha: 62 g ai/ha
Procedure, shortened: as §1

[10] = system: sunflower (common oilseed sunflower, Helianthus annuus); details: Preemergence
Procedure, shortened: as §1

[11] = Preemergence, 125 g ai/ha, 0 to 100 scale
[12] = Postemergence, 250 g ai/ha, scale 0 to 100
[13] = 31 g ai/ha, scale 0 to 100 (0 no effect, 100 complete control)
[14] = 62 g ai/ha, scale 0 to 100, 0 no effect, 100 complete control

Cc1c(F)cccc1-n1c(-c2ccccc2)ncc(C(=O)C2=C(O)CCCC2=O)c1=O [Compound 47, 3-(3-fluoro-2-methylphenyl)-5-[(2-hydroxy-6-oxo-1-cyclohexen-1-yl)carbonyl]-2-phenyl-4(3H)-pyrimidinone]
100%: pest or weed control at 125 g/ha ([3]; Amaranthus retroflexus, post-emergence, Postemergence, 125 g ai/ha, visual rating after 13 to 15 days, scale 0 (no effect) to 100 (complete control)) | pest or weed control at 250 g/ha ([3]; Amaranthus retroflexus, pre-emergence, 250 g ai/ha, Preemergence, 0 to 100 scale, read-out: Plant response rating, Pigweed) | pest or weed control at 250 g/ha ([5]; Eleusine indica, pre-emergence, 250 g ai/ha, Preemergence, 0 to 100 scale, read-out: Plant response rating, Goosegrass) | pest or weed control at 62 g/ha ([5]; Eleusine indica, pre-emergence, Preemergence, scale 0 to 100, 0 no effect, 100 complete control, read-out: Plant response rating, Goosegrass) | pest or weed control at 250 g/ha ([6]; Chenopodium album, pre-emergence, 250 g ai/ha, Preemergence, 0 to 100 scale, read-out: Plant response rating, Lambsquarters) | pest or weed control at 31 g/ha ([6]; Chenopodium album, pre-emergence, Preemergence, 31 g ai/ha, scale 0 to 100 (0 no effect, 100 complete control), read-out: Plant response rating, Lambsquarters) | pest or weed control at 62 g/ha ([6]; Chenopodium album, pre-emergence, Preemergence, scale 0 to 100, 0 no effect, 100 complete control, read-out: Plant response rating, Lambsquarters) | pest or weed control at 250 g/ha ([8]; Urochloa decumbens, pre-emergence, 250 g ai/ha, Preemergence, 0 to 100 scale, read-out: Plant response rating, Surinam Grass) | pest or weed control at 250 g/ha ([9]; Digitaria sanguinalis, pre-emergence, 250 g ai/ha, Preemergence, 0 to 100 scale, read-out: Plant response rating, Crabgrass, Large)
85%: pest or weed control at 31 g/ha ([1]; Eriochloa villosa, post-emergence, Postemergence, read-out: Plant response rating, Cupgrass, Woolly) | pest or weed control at 31 g/ha ([8]; Urochloa decumbens, pre-emergence, Preemergence, 31 g ai/ha, scale 0 to 100 (0 no effect, 100 complete control), read-out: Plant response rating, Surinam Grass) | pest or weed control at 31 g/ha ([9]; Digitaria sanguinalis, post-emergence, Postemergence, read-out: Plant response rating, Crabgrass, Large) | pest or weed control at 62 g/ha ([9]; Digitaria sanguinalis, post-emergence, Postemergence, scale 0 (no effect) to 100 (complete control), 13 to 15 days, read-out: Plant response rating, Crabgrass, Large)
65%: Corn plant response rating (crop injury, 0 = no effect, 100 = complete kill) at 31 g/ha (corn (Zea mays); Zea mays, post-emergence, Postemergence)
100: Cupgrass, Woolly plant response rating [1, 12] | Pigweed plant response rating [3, 11] | Goosegrass plant response rating [5, 11] | Lambsquarters plant response rating [6, 12] | Lambsquarters plant response rating [6, 11] | Plant response rating, Nightshade ([7]; 250 g ai/ha, 0 to 100 scale) | Plant response rating, Nightshade [7, 13] | Plant response rating, Nightshade [7, 14] | Nightshade plant response rating ([7]; 125 g ai/ha, 0 to 100 scale) | Surinam Grass plant response rating [8, 11] | Crabgrass, Large plant response rating [9, 12] | Crabgrass, Large plant response rating [9, 11]
95%: pest or weed control at 62 g/ha ([5]; Eleusine indica, post-emergence, Postemergence, scale 0 (no effect) to 100 (complete control), 13 to 15 days, read-out: Plant response rating, Goosegrass) | pest or weed control at 125 g/ha ([5]; Eleusine indica, post-emergence, Postemergence, 125 g ai/ha, visual rating after 13 to 15 days, scale 0 (no effect) to 100 (complete control)) | pest or weed control at 31 g/ha ([5]; Eleusine indica, pre-emergence, Preemergence, 31 g ai/ha, scale 0 to 100 (0 no effect, 100 complete control), read-out: Plant response rating, Goosegrass) | pest or weed control at 62 g/ha ([8]; Urochloa decumbens, post-emergence, Postemergence, 62 g ai/ha, scale 0 (no effect) to 100 (complete control), 13 to 15 days, read-out: Plant response rating, Surinam Grass) | pest or weed control at 62 g/ha ([9]; Digitaria sanguinalis, pre-emergence, Preemergence, scale 0 to 100, 0 no effect, 100 complete control, read-out: Plant response rating, Crabgrass, Large)
85: Plant response rating, Sunflower ([10]; 250 g ai/ha, 0 to 100 scale)
0: Corn plant response rating (corn (Zea mays); [11]) | Ryegrass, Italian plant response rating [2, 11]
50: Plant response rating, Galium [4, 13] | Plant response rating, Galium [4, 14] | Galium plant response rating ([4]; 125 g ai/ha, 0 to 100 scale)
30%: pest or weed control at 62 g/ha ([2]; Lolium multiflorum, post-emergence, Postemergence, 62 g ai/ha, scale 0 (no effect) to 100 (complete control), 13 to 15 days, read-out: Plant response rating, Ryegrass, Italian) | pest or weed control at 125 g/ha ([2]; Lolium multiflorum, post-emergence, Postemergence, 125 g ai/ha, visual rating after 13 to 15 days, scale 0 (no effect) to 100 (complete control))
98%: pest or weed control at 62 g/ha ([3]; Amaranthus retroflexus, post-emergence, Postemergence, 62 g ai/ha, scale 0 (no effect) to 100 (complete control), 13 to 15 days, read-out: Plant response rating, Pigweed) | pest or weed control at 31 g/ha ([3]; Amaranthus retroflexus, pre-emergence, Preemergence, 31 g ai/ha, scale 0 to 100 (0 no effect, 100 complete control), read-out: Plant response rating, Pigweed) | pest or weed control at 62 g/ha ([6]; Chenopodium album, post-emergence, Postemergence, scale 0 (no effect) to 100 (complete control), 13 to 15 days, read-out: Plant response rating, Lambsquarters) | pest or weed control at 125 g/ha ([6]; Chenopodium album, post-emergence, Postemergence, 125 g ai/ha, visual rating after 13 to 15 days, scale 0 (no effect) to 100 (complete control)) | pest or weed control at 125 g/ha ([8]; Urochloa decumbens, post-emergence, Postemergence, 125 g ai/ha, visual rating after 13 to 15 days, scale 0 (no effect) to 100 (complete control))
95: Plant response rating, Galium ([4]; 250 g ai/ha, 0 to 100 scale)
0%: Corn plant response rating (crop injury, 0 = no effect, 100 = complete kill) at 250 g/ha (corn (Zea mays); Zea mays, pre-emergence, 250 g ai/ha, Preemergence, 0 to 100 scale) | Corn plant response rating (crop injury, 0 = no effect, 100 = complete kill) at 31 g/ha (corn (Zea mays); Zea mays, pre-emergence, Preemergence) | Corn plant response rating (crop injury, 0 = no effect, 100 = complete kill) at 62 g/ha (corn (Zea mays); Zea mays, pre-emergence, Preemergence, 62 g ai/ha, scale 0 to 100, 0 no effect, 100 complete control) | pest or weed control at 31 g/ha ([1]; Eriochloa villosa, pre-emergence, Preemergence, read-out: Plant response rating, Cupgrass, Woolly) | pest or weed control at 250 g/ha ([2]; Lolium multiflorum, pre-emergence, 250 g ai/ha, Preemergence, 0 to 100 scale, read-out: Plant response rating, Ryegrass, Italian) | pest or weed control at 31 g/ha ([2]; Lolium multiflorum, pre-emergence, Preemergence, 31 g ai/ha, scale 0 to 100 (0 no effect, 100 complete control), read-out: Plant response rating, Ryegrass, Italian)
75: Cupgrass, Woolly plant response rating [1, 11]
45%: pest or weed control at 62 g/ha ([1]; Eriochloa villosa, pre-emergence, Preemergence, scale 0 to 100, 0 no effect, 100 complete control, read-out: Plant response rating, Cupgrass, Woolly)
80: Sunflower plant response rating ([10]; 125 g ai/ha, 0 to 100 scale)
90%: pest or weed control at 62 g/ha ([1]; Eriochloa villosa, post-emergence, Postemergence, scale 0 (no effect) to 100 (complete control), 13 to 15 days, read-out: Plant response rating, Cupgrass, Woolly) | pest or weed control at 125 g/ha ([1]; Eriochloa villosa, post-emergence, Postemergence, 125 g ai/ha, visual rating after 13 to 15 days, scale 0 (no effect) to 100 (complete control)) | pest or weed control at 250 g/ha ([1]; Eriochloa villosa, pre-emergence, 250 g ai/ha, Preemergence, 0 to 100 scale, read-out: Plant response rating, Cupgrass, Woolly) | pest or weed control at 125 g/ha ([9]; Digitaria sanguinalis, post-emergence, Postemergence, 125 g ai/ha, visual rating after 13 to 15 days, scale 0 (no effect) to 100 (complete control))
75%: pest or weed control at 31 g/ha ([9]; Digitaria sanguinalis, pre-emergence, Preemergence, read-out: Plant response rating, Crabgrass, Large)
65: Plant response rating, Sunflower [10, 13]
98: Goosegrass plant response rating [5, 12]
80%: Corn plant response rating (crop injury, 0 = no effect, 100 = complete kill) at 125 g/ha (corn (Zea mays); Zea mays, post-emergence, Postemergence, 125 g ai/ha, visual rating after 13 to 15 days, scale 0 (no effect) to 100 (complete control))
